Laboratory results taken from patent publication US8975015B2, “Antimicrobial compounds” (priority 2009, dated 2015).
Converted amounts (≈) assume the structure as drawn.

Experiments:
Experiment in all cases: microbe, parasite or virus in culture
[1] = tested on: Mycobacterium tuberculosis (replicating TB); format: cell-based
[2] = tested on: non-replicating TB; format: cell-based, Mycobacterium tuberculosis
[3] = tested on: strains of TB that are resistant to Rifampin; format: cell-based; settings: Mycobacterium tuberculosis
[4] = tested on: strains of TB that are resistant to Isoniazid; format: cell-based; settings: Mycobacterium tuberculosis
[5] = tested on: strains of TB that are resistant to Kanamycin; format: cell-based; settings: Mycobacterium tuberculosis

Compound: O=C1C=Cc2nocc2/C1=C1/Nc2ccccc2C1=O [Example P1, 4-(3-oxoindolin-2-ylidene)benzo[c]isoxazol-5(4H)-one]
- MIC MABA [1]: 0.15 µg/mL (≈ 0.568 µM)
- MIC LORA [2]: 1.833 µg/mL (≈ 6.94 µM)
- MIC [3]: 0.239 µg/mL (≈ 0.904 µM)
- MIC [4]: 0.138 µg/mL (≈ 0.522 µM)
- MIC [5]: 0.148 µg/mL (≈ 0.56 µM)
